What was measured:
Assay type in all cases: functional
SK-MEL-5 = assay: Growth inhibition of human SK-MEL-5 cells assessed as cell growth at 3X10'-8 M after 48 hrs by sulforhodamine B assay; details: SK-MEL-5, 48 h, read-out: Activity
SK-MEL-28 = assay: Growth inhibition of human SK-MEL-28 cells assessed as cell growth at 3X10'-9 M after 48 hrs by sulforhodamine B assay; details: SK-MEL-28, 48 h, read-out: Activity
RPMI-8226 [1] = assay: Growth inhibition of human RPMI8226 cells assessed as cell growth at 3X10'-7 M after 48 hrs by sulforhodamine B assay; details: RPMI-8226, 48 h, read-out: Activity
SK-OV-3 [2] = assay: Growth inhibition of human SKOV3 cells assessed as cell growth at 3X10'-5 M after 48 hrs by sulforhodamine B assay; details: SK-OV-3, 48 h, read-out: Activity
SW-620 = assay: Growth inhibition of human SW620 cells assessed as cell growth at 3X10'-5 M after 48 hrs by sulforhodamine B assay; details: SW-620, 48 h, read-out: Activity
[3] = Growth inhibition of human NCI-ADR-RES cells assessed as cell growth at 3X10'-8 M after 48 hrs by sulforhodamine B assay; details: read-out: Activity
SF-539 = assay: Growth inhibition of human SF539 cells assessed as cell growth at 3X10'-9 M after 48 hrs by sulforhodamine B assay; details: SF-539, 48 h, read-out: Activity
MDA-MB-231 = assay: Growth inhibition of human MDA-MB-231 cells assessed as cell growth at 3X10'-9 M after 48 hrs by sulforhodamine B assay; details: MDA-MB-231, 48 h, read-out: Activity
SN12C = assay: Growth inhibition of human SN12C cells assessed as cell growth at 3X10'-9 M after 48 hrs by sulforhodamine B assay; details: read-out: Activity
BT-549 [4] = assay: Growth inhibition of human BT549 cells assessed as cell growth at 3X10'-9 M after 48 hrs by sulforhodamine B assay; details: BT-549, 48 h, read-out: Activity
SK-MEL-2 = assay: Growth inhibition of human SK-MEL-2 cells assessed as cell growth at 3X10'-8 M after 48 hrs by sulforhodamine B assay; details: SK-MEL-2, 48 h, read-out: Activity
SK-OV-3 [5] = assay: Growth inhibition of human SKOV3 cells assessed as cell growth at 3X10'-6 M after 48 hrs by sulforhodamine B assay; details: SK-OV-3, 48 h, read-out: Activity
RPMI-8226 [6] = assay: Growth inhibition of human RPMI8226 cells assessed as cell growth at 3X10'-8 M after 48 hrs by sulforhodamine B assay; details: RPMI-8226, 48 h, read-out: Activity
HT-29 [7] = assay: Growth inhibition of human HT-29 cells assessed as cell growth at 3X10'-7 M after 48 hrs by sulforhodamine B assay; details: HT-29, 48 h, read-out: Activity
HT-29 [8] = assay: Growth inhibition of human HT-29 cells assessed as cell growth at 3X10'-6 M after 48 hrs by sulforhodamine B assay; details: HT-29, 48 h, read-out: Activity
MOLT-4 = assay: Growth inhibition of human MOLT4 cells assessed as cell growth at 3X10'-8 M after 48 hrs by sulforhodamine B assay; details: MOLT-4, 48 h, read-out: Activity
IGROV-1 = assay: Growth inhibition of human IGROV1 cells assessed as cell growth at 3X10'-8 M after 48 hrs by sulforhodamine B assay; details: IGROV-1, 48 h, read-out: Activity
[9] = Growth inhibition of human NCI-ADR-RES cells assessed as cell growth at 3X10'-7 M after 48 hrs by sulforhodamine B assay; details: read-out: Activity
T47D = assay: Growth inhibition of human T47D cells assessed as cell growth at 3X10'-7 M after 48 hrs by sulforhodamine B assay; details: read-out: Activity
MCF7 [10] = assay: Growth inhibition of human MCF7 cells assessed as cell growth at 3X10'-8 M after 48 hrs by sulforhodamine B assay; details: MCF7, 48 h, read-out: Activity
SNB-75 = assay: Growth inhibition of human SNB75 cells assessed as cell growth at 3X10'-7 M after 48 hrs by sulforhodamine B assay; details: SNB-75, 48 h, read-out: Activity
SK-OV-3 [11] = assay: Growth inhibition of human SKOV3 cells assessed as cell growth at 3X10'-7 M after 48 hrs by sulforhodamine B assay; details: SK-OV-3, 48 h, read-out: Activity
MDA-MB-468 [12] = assay: Growth inhibition of human MDA-MB-468 cells assessed as cell growth at 3X10'-6 M after 48 hrs by sulforhodamine B assay; details: MDA-MB-468, 48 h, read-out: Activity
MDA-MB-435 = assay: Growth inhibition of human MDA-MB-435 cells assessed as cell growth at 3X10'-8 M after 48 hrs by sulforhodamine B assay; details: MDA-MB-435, 48 h, read-out: Activity
BT-549 [13] = assay: Growth inhibition of human BT549 cells assessed as cell growth at 3X10'-6 M after 48 hrs by sulforhodamine B assay; details: BT-549, 48 h, read-out: Activity
CAKI-1 = assay: Growth inhibition of human CAKI-1 cells assessed as cell growth at 3X10'-8 M after 48 hrs by sulforhodamine B assay; details: CAKI-1, 48 h, read-out: Activity
SF-295 = assay: Growth inhibition of human SF295 cells assessed as cell growth at 3X10'-6 M after 48 hrs by sulforhodamine B assay; details: SF-295, 48 h, read-out: Activity
MDA-MB-468 [14] = assay: Growth inhibition of human MDA-MB-468 cells assessed as cell growth at 3X10'-5 M after 48 hrs by sulforhodamine B assay; details: MDA-MB-468, 48 h, read-out: Activity
HL-60(TB) = assay: Growth inhibition of human HL-60(TB) cells assessed as cell growth at 3X10'-8 M after 48 hrs by sulforhodamine B assay; details: HL-60, 48 h, read-out: Activity
TK-10 = assay: Growth inhibition of human TK10 cells assessed as cell growth at 3X10'-7 M after 48 hrs by sulforhodamine B assay; details: TK-10, 48 h, read-out: Activity
MCF7 [15] = assay: Growth inhibition of human MCF7 cells assessed as cell growth at 3X10'-5 M after 48 hrs by sulforhodamine B assay; details: MCF7, 48 h, read-out: Activity
RXF 393 = assay: Growth inhibition of human RXF393 cells assessed as cell growth at 3X10'-5 M after 48 hrs by sulforhodamine B assay; details: RXF 393, 48 h, read-out: Activity
PC-3 = assay: Growth inhibition of human PC3 cells assessed as cell growth at 3X10'-9 M after 48 hrs by sulforhodamine B assay; details: PC-3, 48 h, read-out: Activity
786-0 = assay: Growth inhibition of human 786-0 cells assessed as cell growth at 3X10'-6 M after 48 hrs by sulforhodamine B assay; details: 786-0, 48 h, read-out: Activity
UO-31 = assay: Growth inhibition of human UO31 cells assessed as cell growth at 3X10'-8 M after 48 hrs by sulforhodamine B assay; details: UO-31, 48 h, read-out: Activity
UACC-62 = assay: Growth inhibition of human UACC62 cells assessed as cell growth at 3X10'-5 M after 48 hrs by sulforhodamine B assay; details: UACC-62, 48 h, read-out: Activity

Row | Compound | growth at 0.03 µM (SK-MEL-5) | growth at 0.003 µM (SK-MEL-28) | growth at 0.3 µM (RPMI-8226 [1]) | growth at 30 µM (SK-OV-3 [2]) | growth at 30 µM (SW-620) | growth at 0.03 µM [3] | growth at 0.003 µM (SF-539) | growth at 0.003 µM (MDA-MB-231) | growth at 0.003 µM (SN12C) | growth at 0.003 µM (BT-549 [4]) | growth at 0.03 µM (SK-MEL-2) | growth at 3 µM (SK-OV-3 [5]) | growth at 0.03 µM (RPMI-8226 [6]) | growth at 0.3 µM (HT-29 [7]) | growth at 3 µM (HT-29 [8]) | growth at 0.03 µM (MOLT-4) | growth at 0.03 µM (IGROV-1) | growth at 0.3 µM [9] | growth at 0.3 µM (T47D) | growth at 0.03 µM (MCF7 [10]) | further results
1 | O=C(Nc1cccc(-n2cc(-c3ccncc3)c(-c3ccc(Cl)c(O)c3)n2)c1)Nc1ccc(Cl)c(C(F)(F)F)c1 | 94% | 103% | 73% | -11% | -43% | 102% | 99% | 92% | 95% | 102% | 113% | 22% | 89% | 93% | 21% | 116% | 109% | 90% | 95% | 90% | growth at 0.3 µM (SNB-75): 74%; growth at 0.3 µM (SK-OV-3 [11]): 95%; growth at 3 µM (MDA-MB-468 [12]): -27%; growth at 0.03 µM (MDA-MB-435): 94%; growth at 3 µM (BT-549 [13]): 12%; growth at 0.03 µM (CAKI-1): 91%; growth at 3 µM (SF-295): -22%; growth at 30 µM (MDA-MB-468 [14]): -43%; growth at 0.03 µM (HL-60(TB)): 116%; growth at 0.3 µM (TK-10): 101%; growth at 30 µM (MCF7 [15]): 2%; growth at 30 µM (RXF 393): -49%; growth at 0.003 µM (PC-3): 93%; growth at 3 µM (786-0): 19%; growth at 0.03 µM (UO-31): 95%; growth at 30 µM (UACC-62): -83%
2 | O=C(Nc1cccc(-n2cc(-c3ccncc3)c(-c3ccc(Cl)c(O)c3)n2)c1)Nc1cccc(C(F)(F)F)c1 | 98% | 103% | 90% | 15% | 8% | 97% | 100% | 103% | 98% | 91% | 98% | 58% | 98% | 111% | 96% | 96% | 98% | 98% | 97% | 96% | growth at 0.3 µM (SNB-75): 85%; growth at 0.3 µM (SK-OV-3 [11]): 105%; growth at 3 µM (MDA-MB-468 [12]): 17%; growth at 0.03 µM (MDA-MB-435): 100%; growth at 3 µM (BT-549 [13]): 79%; growth at 0.03 µM (CAKI-1): 94%; growth at 3 µM (SF-295): 7%; growth at 30 µM (MDA-MB-468 [14]): -27%; growth at 0.03 µM (HL-60(TB)): 94%; growth at 0.3 µM (TK-10): 107%; growth at 30 µM (MCF7 [15]): 2%; growth at 30 µM (RXF 393): -37%; growth at 0.003 µM (PC-3): 95%; growth at 3 µM (786-0): 58%; growth at 0.03 µM (UO-31): 85%; growth at 30 µM (UACC-62): -67%
